Source: article PMC7616177, “From structure to clinic: Design of a muscarinic M1 receptor agonist with the potential to treat Alzheimer’s disease” (Cell, 2021)
pEC50: −log10 of the molar value.

Columns and labels:
M2-receptor = biological target: T1, M2-receptor (Homo sapiens, UniProt P08172); test: M2-receptor functional agonist assay; type: cell-based; set-up: expressed in transfected cells
T1 sequence (P08172 1-466): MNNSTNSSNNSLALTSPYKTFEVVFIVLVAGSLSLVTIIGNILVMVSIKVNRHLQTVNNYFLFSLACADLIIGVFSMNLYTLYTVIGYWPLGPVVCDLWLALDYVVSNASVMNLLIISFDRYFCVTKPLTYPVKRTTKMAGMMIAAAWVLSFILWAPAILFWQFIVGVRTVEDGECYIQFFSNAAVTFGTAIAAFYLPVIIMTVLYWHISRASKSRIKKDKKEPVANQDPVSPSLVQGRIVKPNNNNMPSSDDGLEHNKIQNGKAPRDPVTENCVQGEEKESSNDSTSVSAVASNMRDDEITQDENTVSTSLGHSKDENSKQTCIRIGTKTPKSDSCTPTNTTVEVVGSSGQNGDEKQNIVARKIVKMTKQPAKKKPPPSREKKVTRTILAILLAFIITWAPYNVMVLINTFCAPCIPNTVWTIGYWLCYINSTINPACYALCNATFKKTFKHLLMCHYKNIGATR
Description: Functional assays were performed using the Alphascreen Surefire phopho-ERK1/2 assay. […] Once adhered, cells were serum starved overnight. Agonist stimulation was performed by the addition of […] agonist to the cells for a pre-optimized 5 min period (37°C). Media was removed and 50 μl of lysis buffer added. After 15 min a 4 μl sample was transferred to a 384-well plate and 7 μl of detection mixture added.

healthy volunteers = test: Clinical EEG/ERP P300 active auditory oddball paradigm; type: in vivo; conditions: human multiple dosing, high exposure group, day 9
Description: Routine EEG was performed for all subjects during screening enrolled in the multiple ascending dose study to avoid enrolling subjects showing clinically significant abnormalities. 19-lead EEG recordings were employed for quantitative (qEEG) analyses. qEEGs were are recorded in resting state with alternating 30 s eyes open and 30 s eyes closed for 5 min first and then about 5 min eyes closed. The P50 protocol employed a series of “click pairs.” The interval between click pairs is at random between 6 to 10 s (Stimuli S1 and S2, 1000 Hz, duration 3 ms, 80 dB sound pressure level [SPL], stimulus onset asynchrony [SOA] = 500 ms, The MMN protocol used twelve different frequencies ranging in 50 Hz steps from 700 to 1250 Hz delivered binaurally via special headphones or earphones. All stimuli were presented with a constant SOA of 300 ms in a pseudo-randomized order assuming a frequency deviation of one train to another of at least 100 Hz with three different lengths/durations of series which occurred evenly. For the P300 active auditory oddball paradigm sinusoidal tones of 90 dB SPL intensity and 50 ms duration were delivered binaurally in an inter-stimulus-interval of 1000 msec. The standard stimulus, a low frequency tone (1000 Hz) appeared with a frequency of 85%. […]

Q: How did the pEC50 (M2-receptor) turn out when `CCOC(=O)N1CCC[C@H](N2CCC(C(=O)NC3(C)CCC3)CC2)CC1` [HTL9936, ethyl (S)-4-(4-((1-methylcyclobutyl)carbamoyl)piperidin-1-yl)azepane-1-carboxylate] was run?
A: Its pEC50 is under 4.70.

Q: What about the M2-receptor agonist activity (M2-receptor) of the same molecule?
A: Its M2-receptor agonist activity is “no detectable agonism”.

Q: What about the “P300 deviant amplitude at electrodes Fz and Cz” value (healthy volunteers) of the same molecule?
A: The value was “significant within- and between-group effects for deviant amplitude”.
